Where two headings read alike, the source gives them in different places. Values belong to the molecule of their own block, whether it stands above or below them.
Legend:
K. pneumoniae KPC-Kpn-1 [1] = experiment: Static time-kill assay in CAMHB; format: cell-based; details: in combination with cefepime
Procedure: (§1) Cation adjusted (25.0 mg/L Ca^2+ and 12.5 mg/L Mg^2+) Mueller-Hinton broth (CAMHB; BBL Microbiology Systems, Cockeysville, MD) and agar (CAMHA; Becton, Dickinson and Company, Sparks, MD) were used for susceptibility testing and for all in vitro experiments. […] All antibiotic solutions were filter sterilized using a 0.22-μm-pore-size filter (Fisher Scientific, Pittsburgh, PA).

[2] = parameters: method as in PMID 37358467; details: cited from earlier work
[3] = Plasma pharmacokinetics of MB076 after single IV dose in thigh-infected mice; format: in vivo, mouse; details: for half-life / AUC(0-t) / AUC(0-inf) / C0 / clearance / Vd: plasma; for half-life: iv; for Vd: read-out: Vss
Procedure: A single dose PK study was conducted in mice infected with K. pneumoniae AR-BANK#0098 (producing KPC-2, OXA-9, and TEM-1) employing a thigh infection model. Escalating doses of MB076 (12.5, 25, 50, and 100 mg/kg) were intravenously administered via the tail vein. Following this terminal blood sampling via cardiac puncture was performed at eight different time points 5, 15, 30, 60, 90, 120, 180, and 240 min for each dose level. Plasma was separated by centrifugation at 4,000g for 10 min at 4°C and stored at −80°C until MB076 quantification was performed by LC/MS-MS bioanalysis.
WinNonlin software (Phoenix Build 8.3.1.5014) was employed to perform noncompartmental analysis (NCA) to calculate the PK parameters like elimination half-life (t1/2), area under the concentration–time curve over the duration of study (AUC0–last), and infinity (AUC0–inf), and the peak drug concentration (C0), volume of distribution (V) and clearance (CL). The AUCs for the different MB076 dose levels were calculated and compared to assess for any dose related non-linearity with increasing dose.
Terminal blood collection from cardiac puncture was conducted under CO2 euthanasia. Blood, 0.3–0.4 mL, was drawn into tubes coated with K2EDTA, mixed gently and kept on ice, and centrifuged at 12,000 × g for 5 min at 4°C within 1 h of collection. The plasma was harvested and stored at −80°C until further processing.
A 20 µL aliquot of each plasma sample was transferred to a 96 well plate. A 500 µL aliquot of 0.01 ng/µL internal standard (IS), Oxybutynin, in ACN/FA = 95/5, was added to each tube except for the double blank and carryover controls. A 500 µL aliquot of ACN/FA = 95/5, without oxybutynin, was added to the double blank and carryover assay wells. The equilibrated mixture was vortexed for 1 min and then centrifuged at 4,000 rpm for 10 min at 20°C to precipitate protein. After centrifugation, 500 µL of the supernatant was transferred to a new well of the 96 well plate for LC-MS/MS analysis. Plasma samples from treatment groups and the calibration curve samples were processed on the same test occasion using the same procedure. The calibration curve samples were generated by spiking aliquots of drug-free plasma with an MB076 dilution. The quality control (QC) samples, QH (high), QM (medium), and QL (low) were each assayed in duplicate.
LC-MS/MS was conducted with a SCIEX Triple Quad 5500 + mass spectrometer. Method development was conducted to determine appropriate conditions for LC-MS/MS analysis of MB076. A titration of a stock solution was performed to correlate peak areas and the corresponding concentration. The reportable linear range of the assay was determined along with the lower and upper limits of quantitation (LLOQ and […]).
To develop the bioanalytical method, MB076 was prepared in ACN/H2O = 50/50 at 1 ng/µL. Full scan MS analyses were conducted, and total ion current chromatograms and corresponding mass spectra were reviewed for MB076 in both positive and negative ionization modes. The precursor ions for MS/MS were selected from either the positive or the negative mass spectrum, as a function of the respective ion abundance. In addition, product ion MS/MS analysis was performed to determine the appropriately selected fragmentation reaction for use in quantitative analysis. The final reaction monitoring parameters were chosen to maximize the ability to quantify the test compound when present within a complex mixture of components. Following the identification of the specific multiple reaction monitoring (MRM) transition to be used for each test compound, the detection parameters were optimized. MB076 was observed as one charged ion [M + H]+ and the MRM chosen was m/z = 374.0 to m/z = 243.2 for MB076 in electrospray positive ion mode.
The chromatographic conditions used for LC-MS analysis were identified by injection and separation of the analyte on a suitable LC column followed by adjustment of the gradient conditions as necessary. […]

[4] = system: K. pneumoniae Kpn ST258 C3 (KPC-3); experiment: MIC by agar dilution, Kpn ST258 C3; format: cell-based; details: Klebsiella pneumoniae, MB076 fixed at 4 µg/mL in the combination
Procedure: as §1

[5] = system: K. pneumoniae Kpn ST258 B5 (KPC-2); experiment: MIC by agar dilution, Kpn ST258 B5; format: cell-based; details: Klebsiella pneumoniae, MB076 fixed at 4 µg/mL in the combination
Procedure: as §1

K. pneumoniae KPC-Kpn-1 [6] = experiment: Survival of mice infected intravenously via the tail vein; format: in vivo; details: male C57BL/6, 7 per group, 2.1 × 10^8 CFU/mouse IV; 100 mg/kg/dose at infection, 18 and 24 h; combination at 1:4 molar ratio
Procedure: (§2) A 0.2 mL aliquot of a single-use glycerol stock of the KPC-Kpn isolate (at −80°C) was used to seed 20 mL brain heart infusion (BHI) and then incubated at 35–37°C with shaking (120 rpm) for 8 h. Bacterial cells in the 20 mL aliquot were pelleted by centrifugation (3,500 × g) for 15 min and then resuspended in 10 mL cold phosphate buffer saline (PBS). The optical density, OD620 nm, was measured and used to guide dilution. The PBS suspensions were stored on ice for no more than 2 h prior to infecting the animals. The bacterial count in the challenge organism suspension was enumerated by dilution plating to CAMH agar plates followed by 20–24 h incubation.
Seven male C57BL/6 mice per treatment group were infected intravenously via the tail-vein by injecting a prepared inoculum of KPC-Kpn-1, input CFU = 2.1 × 10^8 CFU/mouse, contained in a volume of 0.25 mL per animal. […] Doses were repeated the following morning and afternoon (18 and 24 h after infection). Survival was evaluated 24 h post-treatment. Kaplan-Meier survival curves were generated using log-rank test (GraphPad Prism 10.1, GraphPad Software Inc., San Diego, USA). A P value of <0.05 was considered statistically significant.

[7] = system: K. pneumoniae Kpn ST17 (KPC-2, TEM, SHV, CTX-M group 1); experiment: MIC by agar dilution, Kpn ST17; format: cell-based; details: Klebsiella pneumoniae, MB076 fixed at 4 µg/mL in the combination
Procedure: as §1

[8] = system: K. pneumoniae Kpn 34700 (CTX-M-15, SHV, TEM); experiment: MIC by agar dilution, Kpn 34700; format: cell-based; details: Klebsiella pneumoniae, MB076 fixed at 4 µg/mL in the combination
Procedure: as §1

[9] = system: K. pneumoniae KPC-Kpn-1 (KPC-3, SHV-12, TEM-1); experiment: MIC by agar dilution, KPC-Kpn-1; format: cell-based; details: Klebsiella pneumoniae, inhibitor (MB076 or S02030) fixed at 4 µg/mL in the combination
Procedure: as §1

[10] = healthy adults, multidose cefepime and zidebactam; cited from earlier work
[11] = system: K. pneumoniae isolate KPC-Kpn-1; experiment: Neutropenic mouse lung infection model (intranasal challenge); format: in vivo; details: 24 h post treatment; treatment from 2 h post infection; cefepime 127.5 mg/kg/day SC, MB076 100 mg/kg/day IV (25 mg/kg every 6 h); neutropenic mice, n = 5
Procedure: as §2
Eleven- to 12-week-old BALB/c mice obtained from Charles River Laboratories (Raleigh, NC) were allowed to acclimatize for at least 1 week prior to initiating the studies. All animal procedures were approved by the Institutional Animal Care and Use Committee at the University of North Carolina at Chapel Hill (IACUC ID: 21-125.0), and all experiments were performed in accordance with institutional guidelines for animal experiments. […]
Five mice/group were sacrificed by overdose of inhaled 5% isoflurane at 26 h post inoculation. […] Lung bacterial counts were analyzed using a one-way ANOVA followed by post-hoc Tukey multiple comparison test (GraphPad Prism 10.1, GraphPad Software Inc., San Diego, USA). […]

[12] = system: K. pneumoniae Kpn 255 (TEM-1, SHV-2); experiment: MIC by agar dilution, Kpn 255; format: cell-based; details: Klebsiella pneumoniae, MB076 fixed at 4 µg/mL in the combination
Procedure: as §1

[13] = system: K. pneumoniae Kpn266 (SHV-5); experiment: MIC by agar dilution, Kpn266; format: cell-based; details: Klebsiella pneumoniae, MB076 fixed at 4 µg/mL in the combination
Procedure: as §1

[14] = system: E. coli ATCC BAA202 (SHV-1); experiment: MIC by agar dilution, E. coli ATCC BAA202; format: cell-based; details: Escherichia coli, ATCCBAA202, MB076 fixed at 4 µg/mL in the combination
Procedure: as §1

[15] = system: K. pneumoniae Kpn original KPC-2; experiment: MIC by agar dilution, Kpn original KPC-2; format: cell-based; details: Klebsiella pneumoniae, MB076 fixed at 4 µg/mL in the combination
Procedure: as §1

[16] = mouse, 12.5 mg/kg single IV, thigh-infected mice
[17] = mouse, 25 mg/kg single IV, thigh-infected mice
[18] = mouse, 50 mg/kg single IV, thigh-infected mice
[19] = mouse, 100 mg/kg single IV, thigh-infected mice

- reduction in clearance ([3]; 100 mg/kg compared to 12.5 mg/kg): 1.7 fold
- increase of dose-normalized AUC ([3]; from 12.5 to 100 mg/kg dose): twofold
- extraction ratio ([3]; hepatic blood flow in mouse 5.4 L/h/kg): 0.33
- clearance classification ([3]; mouse, IV): low clearance compound
- half-life ([3]; mouse, 25 mg/kg, 25 mg/kg single IV, thigh-infected mice): 36.6 min
- half-life ([3]; mouse, 50 mg/kg, 50 mg/kg single IV, thigh-infected mice): 25.8 min
- half-life ([3]; mouse, 100 mg/kg, 100 mg/kg single IV, thigh-infected mice): 25.8 min
- AUC(0-t) ([3]; mouse, single IV 12.5 to 100 mg/kg, infected mice, read-out: AUClast, range over the dose levels): 7100 to 103000 ng·h/mL
- dose linearity of plasma PK ([3]; mouse, single IV): linear PK in plasma up to 50 mg/kg dose
- AUC(0-inf) [3, 16]: 7200 ng·h/mL
- C0 [3, 16]: 35.6 µg/mL
- clearance [3, 16]: 29.1 mL/min/kg
- AUC(0-t) ([3]; mouse, 12.5 mg/kg single IV, thigh-infected mice, read-out: AUClast): 7100 ng·h/mL
- Vd [3, 16]: 0.65 L/kg
- AUC(0-inf) [3, 17]: 17800 ng·h/mL
- C0 [3, 17]: 84 µg/mL
- clearance [3, 17]: 23.4 mL/min/kg
- AUC(0-t) ([3]; mouse, 25 mg/kg single IV, thigh-infected mice, read-out: AUClast): 17600 ng·h/mL
- Vd [3, 17]: 0.8 L/kg
- AUC(0-inf) [3, 18]: 31900 ng·h/mL
- C0 [3, 18]: 207 µg/mL
- clearance [3, 18]: 21.3 mL/min/kg
- AUC(0-t) ([3]; mouse, 50 mg/kg single IV, thigh-infected mice, read-out: AUClast): 39000 ng·h/mL
- Vd [3, 18]: 0.35 L/kg
- AUC(0-inf) [3, 19]: 104000 ng·h/mL
- C0 [3, 19]: 638 µg/mL
- clearance [3, 19]: 16.1 mL/min/kg
- AUC(0-t) ([3]; mouse, 100 mg/kg single IV, thigh-infected mice, read-out: AUClast): 103000 ng·h/mL
- Vd [3, 19]: 0.21 L/kg
Structure (SMILES): Nc1nnc(SCC(=O)N[C@@H](Cn2cc(C(=O)O)nn2)B(O)O)s1 [MB076]
- inhibitor concentration achieving sustained bacterial killing (K. pneumoniae KPC-Kpn-1 [1]): 4 µg/mL
- t1/2 (plasma stability) [2]: 1740 min

Structure (SMILES): O=C(Cc1cccs1)N[C@@H](Cn1cc(C(=O)O)nn1)B(O)O [S02030]
- inhibitor concentration achieving sustained bacterial killing (K. pneumoniae KPC-Kpn-1 [1]): 8 µg/mL
- t1/2 (plasma stability) [2]: 540 min

Structure (SMILES): CO/N=C(\C(=O)N[C@@H]1C(=O)N2C(C(=O)[O-])=C(C[N+]3(C)CCCC3)CS[C@H]12)c1csc(N)n1 [FEP, cefepime]
- MIC [4]: 32 µg/mL
- MIC [5]: 32 µg/mL
- survival outcome of all mice in the group (K. pneumoniae KPC-Kpn-1 [6]): died
- MIC [7]: 8 µg/mL
- MIC [8]: 32 µg/mL
- MIC [9]: 32 µg/mL
- median AUCELF/AUCplasma [10]: 38%
- log10 CFU reduction in lung compared to the no treatment control group [11]: 1.07 log10 CFU
- MIC [12]: 4 µg/mL
- MIC [13]: 2 µg/mL
- MIC [14]: 1 µg/mL
- MIC [15]: 64 µg/mL

Reference: paper PMC11881554 (Antimicrobial Agents and Chemotherapy, 2025)
